Values joined by “and” are separate entries in the source; they are usually repeats but may differ in a detail not shown here. Identical values can stand only once.
What was measured:
AGE-BSA = target: T1, AGE-BSA (Bos taurus, UniProt P02769); assay: In-vitro AGE breaking activity by ELISA; format: biochemical, Bovine; settings: 37° C., 24 hours
T1 construct: Bovine serum albumin (fraction V) (BSA); from tissue; host or cells: bovine serum (fraction V); glycated in house with 1.6 M glucose at 37 °C for 16 weeks
T1 sequence (P02769 25-607): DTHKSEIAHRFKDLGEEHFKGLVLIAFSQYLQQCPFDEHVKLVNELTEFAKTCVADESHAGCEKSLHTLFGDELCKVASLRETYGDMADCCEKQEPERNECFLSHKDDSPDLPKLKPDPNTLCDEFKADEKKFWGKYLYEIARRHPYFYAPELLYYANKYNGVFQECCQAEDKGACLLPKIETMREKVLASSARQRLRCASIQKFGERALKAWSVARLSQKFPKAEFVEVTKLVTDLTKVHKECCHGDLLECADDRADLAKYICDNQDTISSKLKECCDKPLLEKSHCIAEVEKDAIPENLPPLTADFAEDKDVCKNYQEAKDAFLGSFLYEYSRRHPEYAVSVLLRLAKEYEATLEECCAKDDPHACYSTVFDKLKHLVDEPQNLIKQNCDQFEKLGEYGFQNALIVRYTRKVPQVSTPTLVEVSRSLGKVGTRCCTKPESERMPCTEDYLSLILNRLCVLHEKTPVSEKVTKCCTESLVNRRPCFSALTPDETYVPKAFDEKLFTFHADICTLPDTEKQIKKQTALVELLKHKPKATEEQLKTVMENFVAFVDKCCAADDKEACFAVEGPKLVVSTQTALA
Method: AGE breaking activity has been confirmed by the screening procedure as mentioned below:
Methods of experiment: Elisa (Enzyme Linked Immunosorbent Assay)
160 mg/ml of protein, bovine serum albumin, BSA and 1.6M glucose sugar were dissolved in phosphate buffered saline, PBS. Sodium azide was added at 0.02% concentration as a preservative. The solution was filtered asceptically through a […] filter and kept for aging at 37° C. for 16 weeks. After 16 weeks the solution was dialyzed against PBS, aliquoted and stored at −20° C.
To determine the AGE breaking activity, 10 μg/ml of the 16 weeks AGE-BSA was incubated with different concentrations of the test compounds at 37° C. for 24 hours and AGE breaking activity of the test compounds by ELISA was determined.
ELISA was performed as follows
1. Different concentrations of 16 weeks AGE-BSA were coated on a microtiter plate as standard. Each concentration is coated in triplicates.
2. The test samples were coated on microtiter plate at a concentration of 5 ng to 20 ng per well in triplicates
3. The plate was incubated at 37° C. for one hour.
4. After incubation the plate was washed with PBST (PBS with 0.05% Tween 20).
5. Blocking with 5% skimmed milk in PBS at 37° C. for one hour was done.
6. The plate was washed with PBST.
7. Primary antibody against AGE-BSA was added and the plate is incubated at 37° C. for one hour.
8. The plate was washed with PBST
9. Secondary antibody anti rabbit HRPO (Horse-Radish Per Oxidase) conjugate was added and the plate is incubated at 37° C. for one hour.
10. The plate was washed with PBST.
11. Colour development with OPD (orthophenylenediamine dihydrochloride) and hydrogen peroxide was done.
12. OD (optical density) at (450 nm reading-620 nm reading) was measured after incubation at 37° C. for 15 minutes with Microplate ELISA Reader
The breaker activity of the compounds were determined by the following formula: [formula]
OD450-620Control=Absorbance of 20 ng AGE-BSA after incubation at 37° C. for 24 hours without test compound
OD450-620Test=Absorbance of 20 ng AGE-BSA after incubation at 37° C. for 24 hours with required concentration of test compound
Using specific examples, the % AGE breaking activity was calculated and recorded in Table 2.

[1] = Free radical scavenging activity on ABTS radical cation; format: biochemical
Method: This method measures the relative ability of free radical scavenging substances to scavenge the ABTS^.+ i.e. 2,2-Azino-bis-(3-ethyl benzo thiazoline-6-sulfonate) radical cation as compared to a standard amount of standard or free radical scavengers antioxidants. Incubation of ABTS with Peroxidase (metmyoglobin) and hydrogen peroxide results in the production of radical cation ABTS^.+. This species is blue-green in colour and can be detected at 730 nm. Antioxidants or free radical scavengers in the added sample that causes suppression of the color to a degree that is proportional to their concentration.
Preparation of Buffer Solutions
A. Phosphate Citrate Buffer (pH 5.0). 48.5 ml of 0.1M citric acid with sufficient 0.2M disodium hydrogen phosphate to produce 100 ml.
B. Phosphate Buffer Saline (PBS): Dissolve 40.0 g of NaCl, 1.0 g of KCl, 1.0 g of KH2PO4 and 3.05 g of Na2HPO4 in 1 liter milli-Q water. Dilute 200 ml of above solution to 1 liter with milli-Q water (pH 7.4-7.6).
C. 3 μM stock solution of Peroxidase was prepared in phosphate buffer saline pH 7.4(PBS).
D. 1.08 mM stock solution of Hydrogen peroxide was prepared in phosphate buffer saline pH 7.4 (PBS).
Preparation of ABTS Stock Solution
1 tablet (10 mg) was dissolved in phosphate citrate buffer (pH 5.0).
Preparation of ABTS Working Solution
5.0 ml of ABTS stock solution was diluted with PBS to 20 ml.
Preparation of Horse Radish Peroxidase Stock Solution
320 μg of the enzyme was dissolved in 2.5 ml of PBS.
Preparation of Hydrogen Peroxide (1.08 mM) Solution
12 μl of Hydrogen Peroxide (30% w/v) was diluted to 100 ml with PBS. […]
Preparation of ABTS Radical Stock Solution
To 18 ml of ABTS stock solution, 100 μl of Horseradish Peroxidase stock solution was added.
As soon as 1.5 ml of hydrogen peroxide solution was added to the above solution, blue-green colour of the ABTS radicals appeared. This solution was incubated at 30° C. for 30 min.
Preparation of Control Solution
980 μl of ABTS radical stock solution was added to an eppendorf tube. To it was added 100 μl of various PBS solution.
Preparation of test Solution
980 μl of ABTS radical stock solutions were added to different eppendorf tubes. To it were added 100 μl of various concentrations of drug solution.
Measurement of Absorbance (O.D)
The absorbance of control and test samples was recorded immediately at 730 nm taking PBS as blank.
Calculation: The percent antioxidant activity was calculated according to the formula. % Antioxidant activity=[O.D of test sample/O.D of control*100]−100.

SMILES: O=C(NNC(=O)c1ccc[n+](CC(=O)c2cc([N+](=O)[O-])cs2)c1)c1ccc[n+](CC(=O)c2cc([N+](=O)[O-])cs2)c1.[Cl-].[Cl-] [Compound 56, N,N′-bis[3-carbonyl-1-(2-(4-nitrothien-2-yl)-2-oxoethyl)pyridinium]hydrazine dichloride]
- % Breakage (AGE-BSA; 10 mM test compound): 75.92%
- Relative Free Radical Scavenging Activity (%) on ABTS ([1]; 11.5 μM): 43.0%
- Relative Free Radical Scavenging Activity (%) on ABTS ([1]; 23.0 μM): 57.2%
- Relative Free Radical Scavenging Activity (%) on ABTS ([1]; 46.0 μM): 71.6%
- Relative Free Radical Scavenging Activity (%) on ABTS ([1]; 92.5 μM): 97.7%
- Relative Free Radical Scavenging Activity (%) on ABTS ([1]; 925 μM): 100%

SMILES: NC(=O)c1cc(C(=O)NNC(=O)c2ccc[n+](CC(=O)c3cccs3)c2)c[n+](CC(=O)c2cccs2)c1.[Cl-].[Cl-] [Compound 60, 1-[1-(2-thien-2′-yl-2-oxoethyl)-5-aminocarbonyl-3-carbonylpyridinium]-2-[1-(2-Thien-2′-yl-2-oxoethyl)-3-carbonylpyridinium]hydrazine dichloride]
- % Breakage (AGE-BSA; 1 mM test compound): 95.36%
- Relative Free Radical Scavenging Activity (%) on ABTS ([1]; 11.5 μM): 44.1%
- Relative Free Radical Scavenging Activity (%) on ABTS ([1]; 23.0 μM): 59.8%
- Relative Free Radical Scavenging Activity (%) on ABTS ([1]; 46.0 μM): 69.4%
- Relative Free Radical Scavenging Activity (%) on ABTS ([1]; 92.5 μM): 99.9%
- Relative Free Radical Scavenging Activity (%) on ABTS ([1]; 925 μM): 100%

SMILES: Cc1ccc(C(=O)C[n+]2cccc(C(=O)NNS(C)(=O)=O)c2)s1.[Cl-] [Compound 63, 1-(2-(5-methylthien-2-yl)-2-oxoethyl)-3-(methanesulfonyl hydrazinocarbonyl)pyridinium chloride]
- % Breakage (AGE-BSA; 10 mM test compound): 25.17%
- Relative Free Radical Scavenging Activity (%) on ABTS ([1]; 11.5 μM): 10.75%
- Relative Free Radical Scavenging Activity (%) on ABTS ([1]; 23.0 μM): 47.20%
- Relative Free Radical Scavenging Activity (%) on ABTS ([1]; 46.0 μM): 88.64%
- Relative Free Radical Scavenging Activity (%) on ABTS ([1]; 92.5 μM): 99.18%

SMILES: CS(=O)(=O)NNC(=O)c1ccc[n+](CC(=O)c2cc([N+](=O)[O-])cs2)c1.[Br-] [Compound 64, 1-(2-(4-nitrothien-2-yl)-2-oxoethyl)-3-(methanesulfonyl hydrazinocarbonyl)pyridinium bromide]
- % Breakage (AGE-BSA; 10 mM test compound): 60.94%
- Relative Free Radical Scavenging Activity (%) on ABTS ([1]; 11.5 μM, listed as Compound No. 64, 11.5 µM): 41.8% and 26.01%
- Relative Free Radical Scavenging Activity (%) on ABTS ([1]; 23.0 μM, listed as Compound No. 64, 23 µM): 55.7% and 57.39%
- Relative Free Radical Scavenging Activity (%) on ABTS ([1]; 46.0 μM, listed as Compound No. 64, 46 µM): 72.2% and 99.30%
- Relative Free Radical Scavenging Activity (%) on ABTS ([1]; 92.5 μM, listed as Compound No. 64, 92.5 µM): 99.0% and 99.62%
- Relative Free Radical Scavenging Activity (%) on ABTS ([1]; 925 μM): 100%

SMILES: O=C(C[n+]1cccc(C(=O)NNc2ccccc2)c1)Nc1ccccc1.[Cl-] [Compound 65, 1-(2-phenylamino-2-oxoethyl)-3-(phenyl hydrazinocarbonyl)pyridinium chloride]
- % Breakage (AGE-BSA; 2.5 mM test compound): 68.35%
- Relative Free Radical Scavenging Activity (%) on ABTS ([1]; 11.5 μM): 27.67%
- Relative Free Radical Scavenging Activity (%) on ABTS ([1]; 23.0 μM): 59.20%
- Relative Free Radical Scavenging Activity (%) on ABTS ([1]; 46.0 μM): 94.14%
- Relative Free Radical Scavenging Activity (%) on ABTS ([1]; 92.5 μM): 100.00%

SMILES: CS(=O)(=O)NNC(=O)c1ccc[n+](CC(=O)c2ccc([N+](=O)[O-])s2)c1.[Cl-] [Compound 67]
- % Breakage (AGE-BSA; 1 mM test compound): 42.01%
- Relative Free Radical Scavenging Activity (%) on ABTS ([1]; 11.5 μM): 13.11%
- Relative Free Radical Scavenging Activity (%) on ABTS ([1]; 23.0 μM): 50.70%
- Relative Free Radical Scavenging Activity (%) on ABTS ([1]; 46.0 μM): 97.46%
- Relative Free Radical Scavenging Activity (%) on ABTS ([1]; 92.5 μM): 99.43%

SMILES: O=C(NNS(=O)(=O)C(F)(F)F)c1ccc[n+](CC(=O)c2cccs2)c1.[Br-] [Compound 68, 1-(2-thien-2′-yl-2-oxoethyl)-3-(trifluoromethanesulfonyl hydrazinocarbonyl)-pyridinium bromide]
- % Breakage (AGE-BSA; 10 mM test compound): 92.64%
- Relative Free Radical Scavenging Activity (%) on ABTS ([1]; 11.5 μM): 38.47%
- Relative Free Radical Scavenging Activity (%) on ABTS ([1]; 23.0 μM): 43.54%
- Relative Free Radical Scavenging Activity (%) on ABTS ([1]; 46.0 μM): 89.32%
- Relative Free Radical Scavenging Activity (%) on ABTS ([1]; 92.5 μM): 95.07%

Reference: patent US20020103228A1, “Composition and method for use of pyridinium derivatives in cosmetic and therapeutic applications” (TORRENT PHARMACEUTICALS LTD., priority 1999, published 2002)
